Data: US8716303B2, “N-(hetero)aryl-pyrrolidine derivatives of pyrazol-4-yl-pyrrolo[2,3-d]pyrimidines and pyrrol-3-yl-pyrrolo[2,3-d]pyrimidines as janus kinase inhibitors” (Incyte Corporation, priority 2009, dated 2014)
Structures can show the parent of a compound that is named as a salt.

Experiments:
[1] = target: T1, human JAK1 (a.a. 837-1142) (Homo sapiens, UniProt P23458); experiment: In vitro JAK kinase assay (HTRF, phosphorylation of a biotinylated peptide), JAK1; assay type: biochemical
T1 construct: human JAK1 (a.a. 837-1142); His tag (N); made in house; host or cells: insect cells (baculovirus)
In short: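 His-tagged catalytic domains (JAK1 a.a. 837-1142, JAK2 a.a. 828-1132) from insect cells phosphorylate 500 nM biotinylated peptide in 50 mM Tris pH 7.8, 100 mM NaCl, 5 mM DTT; ATP at Km (90 μM JAK1, 30 μM JAK2) or 1 mM, as indicated. 1 h at RT; EDTA stop, HTRF readout; IC50s.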

Jak2 (a.a. 828-1132) = target: T2, Jak2 (a.a. 828-1132) (Homo sapiens, UniProt O60674); experiment: In vitro JAK kinase assay (HTRF, phosphorylation of a biotinylated peptide), JAK2, reported as JAK2/JAK1 ratio; assay type: biochemical
T2 construct: Jak2 (a.a. 828-1132); His tag (N); made in house; host or cells: insect cells (baculovirus)

[2] = Assay Conditions Km (ATP 90 μM for Jak1)
[3] = Assay Conditions Km (ATP 90 μM for Jak1, 30 μM for Jak2)

T1 sequence (P23458 849-1154): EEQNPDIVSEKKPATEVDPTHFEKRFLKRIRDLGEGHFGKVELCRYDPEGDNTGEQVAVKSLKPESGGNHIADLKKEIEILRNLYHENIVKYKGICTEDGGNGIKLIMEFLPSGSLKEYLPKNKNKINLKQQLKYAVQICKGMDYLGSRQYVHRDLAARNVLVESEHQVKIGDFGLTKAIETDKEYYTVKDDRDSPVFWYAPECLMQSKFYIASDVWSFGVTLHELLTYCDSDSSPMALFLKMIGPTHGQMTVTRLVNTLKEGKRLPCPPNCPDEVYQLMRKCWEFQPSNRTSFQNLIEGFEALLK
T2 sequence (O60674 828-1132): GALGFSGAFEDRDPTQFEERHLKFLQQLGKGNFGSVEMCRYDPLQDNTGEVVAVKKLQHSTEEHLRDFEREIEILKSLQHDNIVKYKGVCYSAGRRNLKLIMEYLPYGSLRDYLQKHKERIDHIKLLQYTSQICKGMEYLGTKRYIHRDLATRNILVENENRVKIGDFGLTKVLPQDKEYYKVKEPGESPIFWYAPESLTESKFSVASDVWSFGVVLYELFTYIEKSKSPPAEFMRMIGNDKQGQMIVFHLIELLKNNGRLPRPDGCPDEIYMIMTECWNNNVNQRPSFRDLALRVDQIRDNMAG

Row | Compound | IC50 ([1]; Assay Conditions 1 mM ATP) [nM] | JAK2/JAK1 IC50 ratio (Jak2 (a.a. 828-1132); Assay Conditions 1 mM ATP) | IC50 [1, 2] [nM] | JAK2/JAK1 IC50 ratio (Jak2 (a.a. 828-1132); [3])
1 | N#CC[C@@H]([C@H]1CCN(c2cccc(Cl)c2C#N)C1)n1cc(-c2ncnc3[nH]ccc23)cn1 [Example 48, 2-chloro-6-((3S)-3-{(1S)-2-cyano-1-[4-(7H-pyrrolo[2,3-d]pyrimidin-4-yl)-1H-pyrazol-1-yl]ethyl}pyrrolidin-1-yl)benzonitrile trifluoroacetate] | < 50 | >30 |  | 
2 | CC(C)Nc1ccnc(N2CCC(C(CC#N)n3cc(-c4ncnc5[nH]ccc45)cn3)C2)n1 (stereo not shown) [Example 7, 3-{1-[4-(isopropylamino)pyrimidin-2-yl]pyrrolidin-3-yl}-3-[4-(7H-pyrrolo[2,3-d]pyrimidin-4-yl)-1H-pyrazol-1-yl]propanenitrile] |  |  | < 50 | 4.7
3 | N#CCC(C1CCN(c2nc3ncccc3o2)C1)n1cc(-c2ncnc3[nH]ccc23)cn1 (single isomer, unassigned) [Example 12, 3-(1-[1,3]oxazolo[4,5-b]pyridin-2-ylpyrrolidin-3-yl)-3-[4-(7H-pyrrolo[2,3-d]pyrimidin-4-yl)-1H-pyrazol-1-yl]propanenitrile] |  |  | < 50 | 2.4
4 | N#CCC(n1cc(-c2ncnc3[nH]ccc23)cn1)C1(F)CCN(c2nc3cccnc3o2)C1 (single isomer, unassigned) [31, Step 4a, enantiomer 1] | 50 to 100 | 5.6 |  | 
5 | CS(=O)(=O)c1nccc(N2CCC(C(CC#N)n3cc(-c4ncnc5[nH]ccc45)cn3)C2)n1 (single isomer, unassigned) [Example 25, 3-{1-[2-(methylsulfonyl)pyrimidin-4-yl]pyrrolidin-3-yl}-3-[4-(7H-pyrrolo[2,3-d]pyrimidin-4-yl)-1H-pyrazol-1-yl]propanenitrile] | < 50 | 34 |  | 
6 | N#CC[C@@H]([C@H]1CCN(c2ccnnc2C#N)C1)n1cc(-c2ncnc3[nH]ccc23)cn1 [Example 106, 4-((S)-3-((S)-1-(4-(7H-pyrrolo[2,3-d]pyrimidin-4-yl)-1H-pyrazol-1-yl)-2-cyanoethyl)pyrrolidin-1-yl) pyridazine-3-carbonitrile trifluoroacetate salt] | < 50 | 12.6 |  | 
7 | N#CC[C@@H]([C@H]1CCN(c2nccc(C(F)(F)F)c2C#N)C1)n1cc(-c2ncnc3[nH]ccc23)cn1 [Example 50, 2-((3S)-3-{(1S)-2-cyano-1-[4-(7H-pyrrolo[2,3-d]pyrimidin-4-yl)-1H-pyrazol-1-yl]ethyl}pyrrolidin-1-yl)-4-(trifluoromethyl)nicotinonitrile trifluoroacetate] | < 50 | 15.4 |  | 
8 | N#CC[C@@H]([C@H]1CCN(c2ncsc2C#N)C1)n1cc(-c2ncnc3[nH]ccc23)cn1 [Example 82, 4-(3-{2-cyano-1-[4-(7H-pyrrolo[2,3-d]pyrimidin-4-yl)-1H-pyrazol-1-yl]ethyl}pyrrolidin-1-yl)-1,3-thiazole-5-carbonitrile] | < 50 | 6.7 |  | 
9 | N#CCC(C1CCN(c2cncc(Cl)n2)C1)n1cc(-c2ncnc3[nH]ccc23)cn1 (single isomer, unassigned) [1 (rac)] |  |  | < 50 | 3
10 | N#CC[C@@H]([C@H]1CCN(c2cncc(Cl)c2C#N)C1)n1cc(-c2ncnc3[nH]ccc23)cn1 [Example 64, 3-chloro-5-((3S)-3-{(1S)-2-cyano-1-[4-(7H-pyrrolo[2,3-d]pyrimidin-4-yl)-1H-pyrazol-1-yl]ethyl}pyrrolidin-1-yl) isonicotinonitrile trifluoroacetate salt] | < 50 | 11 |  | 
11 | CCCS(=O)(=O)c1ccc(F)c(N2CC[C@H]([C@H](CC#N)n3cc(-c4ncnc5[nH]ccc45)cn3)C2)n1 [Example 99, trifluoroacetate] | < 50 | 7.6 |  | 
12 | N#CCC(n1cc(-c2ncnc3[nH]ccc23)cn1)C1(F)CCN(c2nc3cccnc3o2)C1 (single isomer, unassigned) [31, Step 4a, enantiomer 2] | 50 to 100 | 5.1 |  | 
13 | N#CC[C@@H]([C@H]1CCN(c2nc(Cl)c(F)cc2N)C1)n1cc(-c2ncnc3[nH]ccc23)cn1.O=C(O)C(F)(F)F.O=C(O)C(F)(F)F [Example 91B, (3S)-3-[(3S)-1-(3-amino-6-chloro-5-fluoropyridin-2-yl)pyrrolidin-3-yl]-3-[4-(7H-pyrrolo[2,3-d]pyrimidin-4-yl)-1H-pyrazol-1-yl]propanenitrile bis(trifluoroacetate)] | < 50 | 7.0 |  | 
14 | N#CCC(n1cc(-c2ncnc3[nH]ccc23)cn1)C1(F)CCN(c2nc3cccnc3o2)C1 (single isomer, unassigned) [31, Step 4b, enantiomer 1] | 100 to 500 | >2.5 |  | 
15 | N#CC[C@@H]([C@H]1CCN(c2ccc(F)c(F)c2C#N)C1)n1cc(-c2ncnc3[nH]ccc23)cn1 [Example 60, 6-((3S)-3-{(1S)-2-cyano-1-[4-(7H-pyrrolo[2,3-d]pyrimidin-4-yl)-1H-pyrazol-1-yl]ethyl}pyrrolidin-1-yl)-2,3-difluorobenzonitrile trifluoroacetate salt] | < 50 | 6.6 |  | 
16 | N#CC[C@@H]([C@H]1CCN(c2ncc(F)cc2C#N)C1)n1cc(-c2ncnc3[nH]ccc23)cn1 [Example 108, 2-((S)-3-((S)-1-(4-(7H-pyrrolo[2,3-d]pyrimidin-4-yl)-1H-pyrazol-1-yl)-2-cyanoethyl)pyrrolidin-1-yl)-5-fluoronicotinonitrile trifluoroacetate salt] | < 50 | 5.7 |  | 

More lines, now with the values ahead:

Row | IC50 ([1]; Assay Conditions 1 mM ATP) [nM] | JAK2/JAK1 IC50 ratio (Jak2 (a.a. 828-1132); Assay Conditions 1 mM ATP) | IC50 [1, 2] [nM] | JAK2/JAK1 IC50 ratio (Jak2 (a.a. 828-1132); [3]) | Compound
17 | < 50 | 21.9 |  |  | N#CCC(C1CCN(c2ncc3c(c2C#N)S(=O)(=O)CC3)C1)n1ccc(-c2ncnc3[nH]ccc23)c1 (racemic) [Example 171-rac, 6-(3-{2-cyano-1-[3-(7H-pyrrolo[2,3-d]pyrimidin-4-yl)-1H-pyrrol-1-yl]ethyl}pyrrolidin-1-yl)-2,3-dihydrothieno[3,2-c]pyridine-7-carbonitrile 1,1-dioxide]
18 | < 50 | 8.0 |  |  | N#CCC(C1CCN(c2ccc3ccsc3n2)C1)n1cc(-c2ncnc3[nH]ccc23)cn1 (single isomer, unassigned) [Example 156, 3-[4-(7H-pyrrolo[2,3-d]pyrimidin-4-yl)-1H-pyrazol-1-yl]-3-(1-thieno[2,3-b]pyridin-6-ylpyrrolidin-3-yl)propanenitrile]
19 | < 50 | 9.9 |  |  | N#CCC(C1CCN(c2scnc2C#N)C1)n1ccc(-c2ncnc3[nH]ccc23)c1 (racemic) [Example 149-1, 5-(3-{2-cyano-1-[3-(7H-pyrrolo[2,3-d]pyrimidin-4-yl)-1H-pyrrol-1-yl]ethyl}pyrrolidin-1-yl)-1,3-thiazole-4-carbonitrile]
20 | < 50 | >4.5 |  |  | C#Cc1cnc(N2CC[C@H]([C@H](CC#N)n3cc(-c4ncnc5[nH]ccc45)cn3)C2)c(C#N)n1 [Example 143, 3-((3S)-3-{(1S)-2-cyano-1-[4-(7H-pyrrolo[2,3-d]pyrimidin-4-yl)-1H-pyrazol-1-yl]ethyl}pyrrolidin-1-yl)-6-ethynylpyrazine-2-carbonitrile trifluoroacetate]
21 | < 50 | 5.0 |  |  | Cc1cnc(N2CC[C@H]([C@H](CC#N)n3cc(-c4ncnc5[nH]ccc45)cn3)C2)c(C#N)c1 [Example 109, 2-((S)-3-((S)-1-(4-(7H-pyrrolo[2,3-d]pyrimidin-4-yl)-1H-pyrazol-1-yl)-2-cyanoethyl)pyrrolidin-1-yl)-5-methylnicotinonitrile trifluoroacetate salt]
22 | < 50 | 12.5 |  |  | CN(C)S(=O)(=O)Nc1nccc(N2CCC(C(CC#N)n3cc(-c4ncnc5[nH]ccc45)cn3)C2)n1 (single isomer, unassigned) [Example 151, N-[4-(3-{2-cyano-1-[4-(7H-pyrrolo[2,3-d]pyrimidin-4-yl)-1H-pyrazol-1-yl]ethyl}pyrrolidin-1-yl)pyrimidin-2-yl]-N,N-dimethylsulfonamide]
23 | < 50 | 2.8 |  |  | N#Cc1cccnc1N1CC[C@H](C(CF)n2cc(-c3ncnc4[nH]ccc34)cn2)C1 (stereo partly drawn) [Example 118, 2-((3S)-3-{2-fluoro-1-[4-(7H-pyrrolo[2,3-d]pyrimidin-4-yl)-1H-pyrazol-1-yl]ethyl}pyrrolidin-1-yl)nicotinonitrile trifluoroacetate]
24 | < 50 | 10.9 |  |  | N#CCC(C1CCN(c2nc3cccc(OC(F)F)c3o2)C1)n1cc(-c2ncnc3[nH]ccc23)cn1 (single isomer, unassigned) [Example 164, 3-(4-(7H-pyrrolo[2,3-d]pyrimidin-4-yl)-1H-pyrazol-1-yl)-3-(1-(7-(difluoromethoxy)benzo[d]oxazol-2-yl)pyrrolidin-3-yl)propanenitrile]
25 | 50 to 100 | 3 |  |  | CS(=O)(=O)c1ccc(F)c(N2CC[C@H]([C@H](CC#N)n3cc(-c4ncnc5[nH]ccc45)cn3)C2)n1 [Example 133, (3S)-3-{(3S)-1-[3-fluoro-6-(methylsulfonyl)pyridin-2-yl]pyrrolidin-3-yl}-3-[4-(7H-pyrrolo [2,3-d]pyrimidin-4-yl)-1H-pyrazol-1-yl] propanenitrile trifluoroacetate]
26 | < 50 | 8.1 |  |  | N#CC[C@@H]([C@H]1CCN(c2nc(S(=O)(=O)CC(F)(F)F)c(F)cc2F)C1)n1cc(-c2ncnc3[nH]ccc23)cn1 [Example 131, (3S)-3-((3S)-1-{3,5-difluoro-6-[(2,2,2-trifluoroethyl)-sulfonyl]pyridin-2-yl}pyrrolidin-3-yl)-3-[4-(7H-pyrrolo[2,3-d]pyrimidin-4-yl)-1H-pyrazol-1-yl]propanenitrile trifluoroacetate]
